# Experimental data reported in ChEMBL document CHEMBL3885861, “Open TG-GATES”.
# Organism: Rattus norvegicus
# Experiment: Open TG-GATES - Regimen: Single
# Assay type: toxicity, organism-based, Sprague-Dawley
# Set-up: regimen Single, gender Male, age 6 weeks
# Conditions: in vivo, po, 100 mg/kg, route gavage, dose level Middle; for APTT / Bas / Eos / Fbg / Hb / Ht / Lym / MCH / MCHC / MCV / Mono / Neu / PT / Plat / RBC / Ret / WBC: tissue Blood; for KIDNEY_L / KIDNEY_R / KIDNEY_TOTAL: tissue Kidney; for LIVER: tissue Liver; for A/G / ALP / ALT / AST / BUN / CRE / Ca / Cl / DBIL / GLC / IP / K / LDH / Na / PL / RALB / TBIL / TC / TG / TP / gamma-GTP: tissue Plasma
structure (smiles),measurement,setting,value
CCc1oc2ccccc2c1C(=O)c1cc(I)c(O)c(I)c1 [BENZIODARONE],TERMINAL_BW,3 h,215.5 g
same,APTT,3 h,16.9 s
same,Bas,3 h,0%
same,Eos,3 h,0.6%
same,Fbg,3 h,189.8 mg/dL
same,Hb,3 h,13.1 g/dL
same,Ht,3 h,39.1%
same,Lym,3 h,75.8%
same,MCH,3 h,21.8 pg
same,MCHC,3 h,33.6%
same,MCV,3 h,64.9 fL
same,Mono,3 h,8.8%
same,Neu,3 h,15%
same,PT,3 h,11.9 s
same,Plat,3 h,118.7 x10_4/uL
same,RBC,3 h,603 x10_4/ul
same,Ret,3 h,9.2%
same,WBC,3 h,94.2 x10_2/uL
same,KIDNEY_L,3 h,1 g
same,KIDNEY_R,3 h,1 g
same,KIDNEY_TOTAL,3 h,2 g
same,LIVER,3 h,10.2 g
same,A/G,3 h,2.1
same,ALP,3 h,966.8 IU/L
same,ALT,3 h,36.6 IU/L
same,AST,3 h,69 IU/L
same,BUN,3 h,12.6 mg/dL
same,CRE,3 h,0.5 mg/dL
same,Ca,3 h,10.5 mg/dL
same,Cl,3 h,102.4 meq/L
same,DBIL,3 h,0.02 mg/dL
same,GLC,3 h,201.2 mg/dL
same,IP,3 h,9.3 mg/dL
same,K,3 h,4.4 meq/L
same,LDH,3 h,110 IU/L
same,Na,3 h,140.4 meq/L
same,PL,3 h,128.6 mg/dL
same,RALB,3 h,3.5 g/dL
same,TBIL,3 h,0.5 mg/dL
same,TC,3 h,73.8 mg/dL
same,TG,3 h,52.4 mg/dL
same,TP,3 h,5.2 g/dL
same,gamma-GTP,3 h,1.8 IU/L
same,TERMINAL_BW,6 h,210.6 g
same,APTT,6 h,16.8 s
same,Bas,6 h,0%
same,Eos,6 h,1%
same,Fbg,6 h,217.8 mg/dL
same,Hb,6 h,13.6 g/dL
same,Ht,6 h,40.7%
same,Lym,6 h,73.2%
same,MCH,6 h,21.7 pg
same,MCHC,6 h,33.3%
same,MCV,6 h,65.1 fL
same,Mono,6 h,9.2%
same,Neu,6 h,16.4%
same,PT,6 h,11.8 s
same,Plat,6 h,109.1 x10_4/uL
same,RBC,6 h,625.8 x10_4/ul
same,Ret,6 h,10.1%
same,WBC,6 h,113.1 x10_2/uL
same,KIDNEY_L,6 h,0.9 g
same,KIDNEY_R,6 h,0.9 g
same,KIDNEY_TOTAL,6 h,1.9 g
same,LIVER,6 h,9.7 g
same,A/G,6 h,2
same,ALP,6 h,826.8 IU/L
same,ALT,6 h,32.6 IU/L
same,AST,6 h,61.2 IU/L
same,BUN,6 h,12.4 mg/dL
same,CRE,6 h,0.5 mg/dL
same,Ca,6 h,10.7 mg/dL
same,Cl,6 h,103.2 meq/L
same,DBIL,6 h,0.02 mg/dL
same,GLC,6 h,182.4 mg/dL
same,IP,6 h,9.9 mg/dL
same,K,6 h,4.6 meq/L
same,LDH,6 h,108.4 IU/L
same,Na,6 h,140.4 meq/L
same,PL,6 h,133 mg/dL
same,RALB,6 h,3.6 g/dL
same,TBIL,6 h,0.3 mg/dL
same,TC,6 h,74.4 mg/dL
same,TG,6 h,77.8 mg/dL
same,TP,6 h,5.4 g/dL
same,gamma-GTP,6 h,1.6 IU/L
same,TERMINAL_BW,9 h,209.5 g
same,APTT,9 h,16.8 s
same,Bas,9 h,0%
same,Eos,9 h,1%
same,Fbg,9 h,202.2 mg/dL
same,Hb,9 h,13.6 g/dL
same,Ht,9 h,40.8%
same,Lym,9 h,76.4%
same,MCH,9 h,21.3 pg
same,MCHC,9 h,33.3%
same,MCV,9 h,63.9 fL
same,Mono,9 h,7.4%
same,Neu,9 h,15.4%
same,PT,9 h,12.4 s
same,Plat,9 h,121.3 x10_4/uL
same,RBC,9 h,638.4 x10_4/ul
same,Ret,9 h,8.2%
same,WBC,9 h,86.5 x10_2/uL
same,KIDNEY_L,9 h,1 g
same,KIDNEY_R,9 h,0.9 g
same,KIDNEY_TOTAL,9 h,1.9 g
same,LIVER,9 h,8.9 g
same,A/G,9 h,2.3
same,ALP,9 h,766.6 IU/L
same,ALT,9 h,29.8 IU/L
same,AST,9 h,63.4 IU/L
same,BUN,9 h,13 mg/dL
same,CRE,9 h,0.5 mg/dL
same,Ca,9 h,10.3 mg/dL
same,Cl,9 h,105.2 meq/L
same,DBIL,9 h,0.07 mg/dL
same,GLC,9 h,194.8 mg/dL
same,IP,9 h,10.9 mg/dL
same,K,9 h,4.5 meq/L
same,LDH,9 h,108.8 IU/L
same,Na,9 h,142.4 meq/L
same,PL,9 h,122.8 mg/dL
same,RALB,9 h,3.7 g/dL
same,TBIL,9 h,0.3 mg/dL
same,TC,9 h,68.2 mg/dL
same,TG,9 h,56.6 mg/dL
same,TP,9 h,5.4 g/dL
same,gamma-GTP,9 h,0.6 IU/L
same,TERMINAL_BW,24 h,228.7 g
same,APTT,24 h,17.4 s
same,Bas,24 h,0%
same,Eos,24 h,1.2%
same,Fbg,24 h,196.8 mg/dL
same,Hb,24 h,13.2 g/dL
same,Ht,24 h,39.3%
same,Lym,24 h,73.8%
same,MCH,24 h,22 pg
same,MCHC,24 h,33.7%
same,MCV,24 h,65.4 fL
same,Mono,24 h,9.6%
same,Neu,24 h,15.6%
same,PT,24 h,12.1 s
same,Plat,24 h,113.1 x10_4/uL
same,RBC,24 h,601.2 x10_4/ul
same,Ret,24 h,9%
same,WBC,24 h,106.2 x10_2/uL
same,KIDNEY_L,24 h,1 g
same,KIDNEY_R,24 h,1 g
same,KIDNEY_TOTAL,24 h,2 g
same,LIVER,24 h,11.9 g
same,A/G,24 h,2.1
same,ALP,24 h,1017.4 IU/L
same,ALT,24 h,36.8 IU/L
same,AST,24 h,66 IU/L
same,BUN,24 h,17.8 mg/dL
same,CRE,24 h,0.5 mg/dL
same,Ca,24 h,10.6 mg/dL
same,Cl,24 h,104.8 meq/L
same,DBIL,24 h,0.006 mg/dL
same,GLC,24 h,196 mg/dL
same,IP,24 h,7.6 mg/dL
same,K,24 h,4.6 meq/L
same,LDH,24 h,87.6 IU/L
same,Na,24 h,140.8 meq/L
same,PL,24 h,129 mg/dL
same,RALB,24 h,3.7 g/dL
same,TBIL,24 h,0.4 mg/dL
same,TC,24 h,65.8 mg/dL
same,TG,24 h,84 mg/dL
same,TP,24 h,5.5 g/dL
same,gamma-GTP,24 h,1 IU/L
